Test results: patent EP0454060B1, “3-(Mercaptoalkyl)-quinazoline-2,4(1H,3H)-diones, processes for their preparation, and pharmaceutical compositions” (priority 1990, dated 1991)

How the values were obtained:
[1] = system: primären Hühnerembryonalzellen (2 Tage alt); assay: Cell tolerance, microscopic reading; type: cell-based, Hühner; design: key: 0̸: Am 5. Tag der mikroskopischen Ablesung keine morphologischen Veränderungen der Zellen.; ++++: Komplette Veränderungen der Zellschicht in Form von Abrundung, Granulierung und Ablösen der Zellen von der Glaswand.; +++: Analoge Veränderungen bei 3/4 des Zellrasens.; ++: Analoge Veränderungen bei 1/2 des Zellrasens.; +: Analoge Veränderungen bei 1/4 des Zellrasens; details: HEZ, reading day 5
From the text: (§1) 0̸ = Am 5. Tag der mikroskopischen Ablesung keine morphologischen Veränderungen der Zellen. ++++ = Komplette Veränderungen der Zellschicht in Form von Abrundung, Granulierung und Ablösen der Zellen von der Glaswand. +++ = Analoge Veränderungen bei 3/4 des Zellrasens. ++ = Analoge Veränderungen bei 1/2 des Zellrasens. + = Analoge Veränderungen bei 1/4 des Zellrasens.

[2] = system: MDBK (bovine Nierenzellen-Permanentzellinie); assay: Cell tolerance, microscopic reading; type: cell-based; design: key: 0̸: Am 5. Tag der mikroskopischen Ablesung keine morphologischen Veränderungen der Zellen.; ++++: Komplette Veränderungen der Zellschicht in Form von Abrundung, Granulierung und Ablösen der Zellen von der Glaswand.; +++: Analoge Veränderungen bei 3/4 des Zellrasens.; ++: Analoge Veränderungen bei 1/2 des Zellrasens.; +: Analoge Veränderungen bei 1/4 des Zellrasens; details: MDKB, reading day 5
From the text: as §1

[3] = system: RH (humane Nierenzellen-Permanentzellinie); assay: Cell tolerance, microscopic reading; type: cell-based; design: key: 0̸: Am 5. Tag der mikroskopischen Ablesung keine morphologischen Veränderungen der Zellen.; ++++: Komplette Veränderungen der Zellschicht in Form von Abrundung, Granulierung und Ablösen der Zellen von der Glaswand.; +++: Analoge Veränderungen bei 3/4 des Zellrasens.; ++: Analoge Veränderungen bei 1/2 des Zellrasens.; +: Analoge Veränderungen bei 1/4 des Zellrasens; details: reading day 5
From the text: as §1

[4] = system: Human-Fibroblasten (2 Tage alt); assay: Cell tolerance, microscopic reading; type: cell-based; design: key: 0̸: Am 5. Tag der mikroskopischen Ablesung keine morphologischen Veränderungen der Zellen.; ++++: Komplette Veränderungen der Zellschicht in Form von Abrundung, Granulierung und Ablösen der Zellen von der Glaswand.; +++: Analoge Veränderungen bei 3/4 des Zellrasens.; ++: Analoge Veränderungen bei 1/2 des Zellrasens.; +: Analoge Veränderungen bei 1/4 des Zellrasens; details: HFi, reading day 5
From the text: as §1

[5] = system: SE-spezifischen IgM- und IgG-PBZ; assay: Plaque test after damage of the immune system by cyclophosphamide (immunorestoration); type: in vivo, CBA-Inzuchtmäuse; details: ZY 150 mg/kg day -1 + 2 mg/kg oral days -2 to +2
From the text: Der Nachweis von immunrestaurativen Wirkungen erfolgte nach Schädigung des Immunsystems ebenfalls mittels • Plaque-Test zum Nachweis von SE-spezifischen IgM- und IgG-PBZ sowie durch • Rosettentest.
Aus den Werten wird deutlich, daß die Verbindungen der allgemeinen Formel I einen gut nachweisbaren Effekt auf die Effektor-T-Lymphozyten-abhängige verzögerte Uberempfindlichkeit haben. Kontaktdermatitis-Werte ab 120 (≙ 20 % Steigerung gegenüber der Kontrolle) bzw. unter 80 werden als Nachweis eines stimulatorischen bzw. suppressorischen Effektes angesehen. Antikörpertiter-Differenzen von >+1 bzw. <-1 verdeutlichen den stimulatorischen bzw. suppressorischen Effekt der Substanzen auf die humorale Immunantwort. 2. Untersuchungen zur immunstimulierenden Wirkung • 2.1 Plaque-Test zum Nachweis von SE-spezifischen IgM- und IgG-PBZ Zur Prüfung immunstimulierender Effekte wurde u. a. auch der Einfluß von Verbindungen der allgemeinen Formel I auf die humorale Immunantwort an Mäusen des Inzuchtstammes CBA und mittels Hämolyse-Plaque-Test (HPT) untersucht. Diese Technik erlaubt die quantitative und getrennte Erfassung IgM- und IgG-Antikörper produzierender Zellen (= Plaque bildende Zellen; PBZ). Die Immunisierung mit Schaferythrozyten (SE) erfolgte am Tag 0, die Substanzapplikation (Tagesdosis 1.10^-5 mol/kg Körpermasse; peroral) an den Tagen -1 bis +3 (zur Erfassung der IgM-PBZ) bzw. an den Tagen +1 bis +5 (zur Erfassung der IgG-PBZ). • 2.2 Ergebnisse: Durch tägliche und über 5 Tage gehende Gabe von 2,0 mg der Verbindung gemäß Beispiel 1 pro kg Körpermasse konnte die Zahl der IgM-PBZ auf einen Durchschnittswert von 352 % im Vergleich zur Kontrolle (100 %) gesteigert werden. Die gleiche Form der Behandlung führte zu einer Erhöhung der IgG-PBZ auf 497 % (Kontrolle: 100 %). In beiden Fällen erwies sich die Differenz zur Kontrolle im t-Test mit p < 0,001 als signifikant. Es wird deutlich, daß eine über 5 Tage gehende tägliche Behandlung mit der Verbindung gemäß Beispiel 1 bei der CBA-Maus eine hochsignifikante Steigerung SE-spezifischer IgM- und IgG-PBZ hervorruft. • 2.3 Rosettentest (SE-spezifische Rosetten) Nach der BURNET'schen Theorie tragen die Lymphozyten auf ihrer Oberfläche Immunglobulin-Rezeptoren, die gegen ein bestimmtes Antigen gerichtet und durch eine Reaktion mit dem spezifischen Antigen nachweisbar sind. Die Bestimmung der Anzahl an rosettenbildenden Zellen (RBZ) kann als Maß für die Stärke einer anlaufenden Immunreaktion dienen und folgend auch Effekte im Sinne einer Suppression oder Stimulierung zellproliferativer Prozesse wiedergeben. Drei Tage nach der intravenösen Immunisierung mit 2·10^5 Schaferythrozyten (SE) in 0,2 ml physiologischer Kochsalzlösung wurden die Versuchstiere durch Überstrecken getötet, die Milz entnommen und unter Zugabe von Parker-Medium (pH 7,4) durch Müller-Gaze gerieben. Die Arbeiten zur Gewinnung der Zellsuspension wurden im Eiswasserbad (ca 0 bis 4 °C) durchgeführt. In einer Zählkammer nach Neubauer erfolgte die Bestimmung der Zelldichte, und anschließend wurde die für alle Versuchsansätze konstante Zellzahl von 1·10^7 kernhaltigen Zellen (KHZ)/ml Medium eingestellt. 0,9 ml der Milzzellsuspension (1·10^7 KHZ/ml) wurden dann mit 0,1 ml einer 5 %igen gewaschenen Schaferythrozytensuspension versetzt und 24 Stunden bei 4 °C inkubiert. […] 3. Untersuchungen zu immunrestaurativen Effekten 3.1 Der Nachweis der immunrestaurativen Wirksamkeit von Verbindungen der allgemeinen Formel I wurde u. a. dadurch geführt,daß das Immunsystem der Versuchstiere (CBA-Inzuchtmäuse) durch Chemotherapie (Zyklophosphamid, Carageenan, Iloprost) bzw. Bestrahlung geschädigt wurde. Die Prüfung erfolgte u. a. mittels folgender oben erläuterter Techniken: • Plaque-Test zum Nachweis von SE-spezifischen IgM- und IgG-PBZ, • Rosettentest. […]

[6] = 125 µmol/l in maintenance medium
[7] = 250 µmol/l in maintenance medium
[8] = 500 µmol/l in maintenance medium
[9] = 1000 µmol/l in maintenance medium
[10] = 62,5 µmol/l in maintenance medium

SMILES: O=c1[nH]c2ccccc2c(=O)n1CCS [Beispiel 1, 3-(2-Mercaptoethyl)-chinazolin-2,4(1H,3H)-dion]
- Zellverträglichkeit [1, 6]: 0̸
- Zellverträglichkeit [1, 7]: 0̸
- Zellverträglichkeit [1, 8]: +
- Zellverträglichkeit [1, 9]: +++
- Zellverträglichkeit [1, 10]: 0̸
- Zellverträglichkeit [2, 6]: 0̸
- Zellverträglichkeit [2, 7]: 0̸
- Zellverträglichkeit [2, 8]: ++
- Zellverträglichkeit [2, 9]: ++++
- Zellverträglichkeit [2, 10]: 0̸
- Zellverträglichkeit [3, 6]: 0̸
- Zellverträglichkeit [3, 7]: 0̸
- Zellverträglichkeit [3, 8]: ++
- Zellverträglichkeit [3, 9]: +++
- Zellverträglichkeit [3, 10]: 0̸
- Zellverträglichkeit [4, 6]: 0̸
- Zellverträglichkeit [4, 7]: 0̸
- Zellverträglichkeit [4, 8]: 0̸
- Zellverträglichkeit [4, 9]: ++
- Zellverträglichkeit [4, 10]: 0̸
- IgM-PBZ/10^6 ([5]; test day + 3): 31,7 ± 26,6 /10^6
- IgM-PBZ/10^6 ([5]; test day + 4): 59,8 ± 26,6 /10^6
- IgM-PBZ/10^6 ([5]; test day + 5, p <0,05): 125,2 ± 32,7 /10^6
- IgM-PBZ/10^6 ([5]; test day + 6): 47,8 ± 31,2 /10^6
- IgG-PBZ/10^6 Milzzellen ([5]; test day + 6, p <0,05): 88,3 ± 24,8 /10^6 Milzzellen
- IgG-PBZ/10^6 Milzzellen ([5]; test day + 7, p <0,01): 128,3 ± 28,6 /10^6 Milzzellen
- IgG-PBZ/10^6 Milzzellen ([5]; test day + 8): 58,3 ± 43,6 /10^6 Milzzellen
